Patent publication US10004701B2, “Methods and compositions for treating infection” (UNIVERSITY OF ROCHESTER, priority 2012, dated 2018)
Counter-ions that a name gives are not always drawn. Like-named read-outs stand apart in the source and are kept apart here.

Legend:
Assay in all cases: AK assay 384-well format, Prestwick library screening
[1] = tested on: A. baumannii strain 98-37-09; type: cell-based, Acinetobacter baumannii; conditions: for fold induction at 50 µM: Acinetobacter baumannii, 983709, 3 h
E. faecium = type: cell-based, Enterococcus faecium; conditions: for fold induction at 50 µM: Enterococcus faecium, 3 h
E. coli = type: cell-based, Escherichia coli; conditions: for fold induction at 50 µM: Escherichia coli, 3 h
E. cloacae = type: cell-based, Enterobacter cloacae; conditions: for fold induction at 50 µM: Enterobacter cloacae, 3 h
[2] = tested on: S. aureus strain USA300-0114; type: cell-based, Staphylococcus aureus; conditions: for fold induction at 50 µM: Staphylococcus aureus, USA300, 3 h
K. pneumoniae = type: cell-based, Klebsiella pneumoniae; conditions: for fold induction at 50 µM: Klebsiella pneumoniae, 3 h
P. aeruginosa = type: cell-based, Pseudomonas aeruginosa; conditions: for fold induction at 50 µM: Pseudomonas aeruginosa, 3 h
[3] = planktonic A. baumannii, 50 μM final drug concentration, 384-well, cutoff for positive-scoring molecules 3-fold increase, read-out: AK-based Prestwick Library Screening Results: A. baumannii (increase in extracellular AK activity)
[4] = planktonic E. faecium, 50 μM final drug concentration, 384-well, cutoff for positive-scoring molecules 3-fold increase, read-out: AK-based Prestwick Library Screening Results: E. faecium (increase in extracellular AK activity)
[5] = planktonic E. coli, 50 μM final drug concentration, 384-well, cutoff for positive-scoring molecules 3-fold increase, read-out: AK-based Prestwick Library Screening Results: E. coli (increase in extracellular AK activity)
[6] = planktonic E. cloacae, 50 μM final drug concentration, 384-well, cutoff for positive-scoring molecules 3-fold increase, read-out: AK-based Prestwick Library Screening Results: E. cloacae (increase in extracellular AK activity)
[7] = planktonic S. aureus, 50 μM final drug concentration, 384-well, cutoff for positive-scoring molecules 3-fold increase, read-out: AK-based Prestwick Library Screening Results: S. aureus (increase in extracellular AK activity)
[8] = planktonic K. pneumoniae, 50 μM final drug concentration, 384-well, cutoff for positive-scoring molecules 3-fold increase, read-out: AK-based Prestwick Library Screening Results: K. pneumoniae (increase in extracellular AK activity)
[9] = planktonic P. aeruginosa, 50 μM final drug concentration, 384-well, cutoff for positive-scoring molecules 3-fold increase, read-out: AK-based Prestwick Library Screening Results: P. aeruginosa (increase in extracellular AK activity)
[10] = 50 μM final drug concentration, planktonic, […]

## NCCCCCC(=O)O [Aminocaproic acid]
[1]; read-out: AK-based Prestwick Library Screening Results, A. baumannii (fold increase in extracellular AK activity)
  fold induction at 50 µM: 1.3
E. faecium; read-out: AK-based Prestwick Library Screening Results, E. faecium (fold increase in extracellular AK activity)
  fold induction at 50 µM: 1.1
E. coli; read-out: AK-based Prestwick Library Screening Results, E. coli (fold increase in extracellular AK activity)
  fold induction at 50 µM: 1.2
E. cloacae; read-out: AK-based Prestwick Library Screening Results, E. cloacae (fold increase in extracellular AK activity)
  fold induction at 50 µM: 1.6
[2]; read-out: AK-based Prestwick Library Screening Results, S. aureus (fold increase in extracellular AK activity)
  fold induction at 50 µM: 1.2
K. pneumoniae; read-out: AK-based Prestwick Library Screening Results, K. pneumoniae (fold increase in extracellular AK activity)
  fold induction at 50 µM: 1.2
P. aeruginosa; read-out: AK-based Prestwick Library Screening Results, P. aeruginosa (fold increase in extracellular AK activity)
  fold induction at 50 µM: 1.1

## N[C@H]1CONC1=O [(S)-(−)-Cycloserine]
[1]; planktonic A. baumannii, 50 μM final drug concentration, positive cutoff 3-fold increase
  AK-based Prestwick library screening result, A. baumannii (fold increase in extracellular AK activity): 1.1
E. faecium; planktonic E. faecium, 50 μM final drug concentration, positive cutoff 3-fold increase
  AK-based Prestwick library screening result, E. faecium (fold increase in extracellular AK activity): 1.1
E. coli; planktonic E. coli, 50 μM final drug concentration, positive cutoff 3-fold increase
  AK-based Prestwick library screening result, E. coli (fold increase in extracellular AK activity): 1.3
E. cloacae; planktonic E. cloacae, 50 μM final drug concentration, positive cutoff 3-fold increase
  AK-based Prestwick library screening result, E. cloacae (fold increase in extracellular AK activity): 1.6
[2]; planktonic S. aureus, 50 μM final drug concentration, positive cutoff 3-fold increase
  AK-based Prestwick library screening result, S. aureus (fold increase in extracellular AK activity): 1.1
K. pneumoniae; planktonic K. pneumoniae, 50 μM final drug concentration, positive cutoff 3-fold increase
  AK-based Prestwick library screening result, K. pneumoniae (fold increase in extracellular AK activity): 1.0
P. aeruginosa; planktonic P. aeruginosa, 50 μM final drug concentration, positive cutoff 3-fold increase
  AK-based Prestwick library screening result, P. aeruginosa (fold increase in extracellular AK activity): 1.1

## COC(=O)C1=C(C)NC(C)=C(C(=O)OC)C1c1ccccc1[N+](=O)[O-] [Nifedipine]
[1]; [3]
  fold induction at 50 µM: 1.5
E. faecium; [4]
  fold induction at 50 µM: 0.9
E. coli; [5]
  fold induction at 50 µM: 1.4
E. cloacae; [6]
  fold induction at 50 µM: 1.4
[2]; [7]
  fold induction at 50 µM: 0.5
K. pneumoniae; [8]
  fold induction at 50 µM: 0.9
P. aeruginosa; [9]
  fold induction at 50 µM: 1

## C=C(C)[C@@H]1CC[C@]2(C(=O)O)CC[C@]3(C)[C@H](CC[C@@H]4[C@@]5(C)CC[C@H](O)C(C)(C)[C@@H]5CC[C@]43C)[C@@H]12 [Betulinic acid]
[1]; planktonic A. baumannii, 50 μM final drug concentration, cutoff for positive-scoring molecules 3-fold increase, read-out: AK-based Prestwick Library Screening Results, A. baumannii (increase in extracellular AK activity)
  fold induction at 50 µM: 0.6
E. faecium; planktonic E. faecium, 50 μM final drug concentration, cutoff for positive-scoring molecules 3-fold increase, read-out: AK-based Prestwick Library Screening Results, E. faecium (increase in extracellular AK activity)
  fold induction at 50 µM: 0.9
E. coli; planktonic E. coli, 50 μM final drug concentration, cutoff for positive-scoring molecules 3-fold increase, read-out: AK-based Prestwick Library Screening Results, E. coli (increase in extracellular AK activity)
  fold induction at 50 µM: 0.6
E. cloacae; planktonic E. cloacae, 50 μM final drug concentration, cutoff for positive-scoring molecules 3-fold increase, read-out: AK-based Prestwick Library Screening Results, E. cloacae (increase in extracellular AK activity)
  fold induction at 50 µM: 0.7
[2]; planktonic S. aureus, 50 μM final drug concentration, cutoff for positive-scoring molecules 3-fold increase, read-out: AK-based Prestwick Library Screening Results, S. aureus (increase in extracellular AK activity)
  fold induction at 50 µM: 0.1
K. pneumoniae; planktonic K. pneumoniae, 50 μM final drug concentration, cutoff for positive-scoring molecules 3-fold increase, read-out: AK-based Prestwick Library Screening Results, K. pneumoniae (increase in extracellular AK activity)
  fold induction at 50 µM: 0.5
P. aeruginosa; planktonic P. aeruginosa, 50 μM final drug concentration, cutoff for positive-scoring molecules 3-fold increase, read-out: AK-based Prestwick Library Screening Results, P. aeruginosa (increase in extracellular AK activity)
  fold induction at 50 µM: 0.6

## Cc1cc(C)nc(NS(=O)(=O)c2ccc(N)cc2)n1 [Sulfamethazine sodium salt]
[1]; 50 μM final drug concentration, cutoff for positive-scoring molecules 3-fold increase, read-out: AK-based Prestwick Library Screening Results, A. baumannii (fold increase in extracellular AK activity)
  fold induction at 50 µM: 1.6
E. faecium; 50 μM final drug concentration, cutoff for positive-scoring molecules 3-fold increase, read-out: AK-based Prestwick Library Screening Results, E. faecium (fold increase in extracellular AK activity)
  fold induction at 50 µM: 1
E. coli; 50 μM final drug concentration, cutoff for positive-scoring molecules 3-fold increase, read-out: AK-based Prestwick Library Screening Results, E. coli (fold increase in extracellular AK activity)
  fold induction at 50 µM: 1
E. cloacae; 50 μM final drug concentration, cutoff for positive-scoring molecules 3-fold increase, read-out: AK-based Prestwick Library Screening Results, E. cloacae (fold increase in extracellular AK activity)
  fold induction at 50 µM: 1.4
[2]; 50 μM final drug concentration, cutoff for positive-scoring molecules 3-fold increase, read-out: AK-based Prestwick Library Screening Results, S. aureus (fold increase in extracellular AK activity)
  fold induction at 50 µM: 1.4
K. pneumoniae; 50 μM final drug concentration, cutoff for positive-scoring molecules 3-fold increase, read-out: AK-based Prestwick Library Screening Results, K. pneumoniae (fold increase in extracellular AK activity)
  fold induction at 50 µM: 1
P. aeruginosa; 50 μM final drug concentration, cutoff for positive-scoring molecules 3-fold increase, read-out: AK-based Prestwick Library Screening Results, P. aeruginosa (fold increase in extracellular AK activity)
  fold induction at 50 µM: 1.1

## CC[C@@H](C)C(=O)O[C@H]1[C@H](O)[C@H]2[C@@H](CN3C[C@@H](C)CC[C@H]3[C@@]2(C)O)[C@@H]2C[C@]34O[C@]5(O)[C@@H](OC(=O)[C@@](C)(O)CC)CC[C@@]3(C)[C@@H]5[C@@H](OC(C)=O)[C@@H](OC(C)=O)[C@H]4[C@@]21O [Protoveratrine A]
[1]; [10]
  AK-based Prestwick Library Screening Results, A. baumannii (fold increase in extracellular AK activity): 1.2
E. faecium; [10]
  AK-based Prestwick Library Screening Results, E. faecium (fold increase in extracellular AK activity): 1.0
E. coli; [10]
  AK-based Prestwick Library Screening Results, E. coli (fold increase in extracellular AK activity): 1.1
E. cloacae; [10]
  AK-based Prestwick Library Screening Results, E. cloacae (fold increase in extracellular AK activity): 1.3
[2]; [10]
  AK-based Prestwick Library Screening Results, S. aureus (fold increase in extracellular AK activity): 1.2
K. pneumoniae; [10]
  AK-based Prestwick Library Screening Results, K. pneumoniae (fold increase in extracellular AK activity): 1.2
P. aeruginosa; [10]
  AK-based Prestwick Library Screening Results, P. aeruginosa (fold increase in extracellular AK activity): 1.1

## O=C(Nc1ccccc1)OCC(CN1CCCCC1)OC(=O)Nc1ccccc1 (stereo not drawn) [Diperodon hydrochloride]
[1]; [3]
  fold induction at 50 µM: 1.1
E. faecium; [4]
  fold induction at 50 µM: 1.1
E. coli; [5]
  fold induction at 50 µM: 1.4
E. cloacae; [6]
  fold induction at 50 µM: 1.4
[2]; [7]
  fold induction at 50 µM: 1.2
K. pneumoniae; [8]
  fold induction at 50 µM: 0.9
P. aeruginosa; [9]
  fold induction at 50 µM: 1.1

## CC(=O)CC(c1ccc([N+](=O)[O-])cc1)c1c(O)c2ccccc2oc1=O (stereo not drawn) [Acenocoumarol]
[1]; 50 μM final drug concentration, 384-well format, cutoff for positive-scoring molecules 3-fold increase, read-out: AK-based Prestwick Library Screening Results, A. baumannii (increase in extracellular AK activity)
  fold induction at 50 µM: 0.8
E. faecium; 50 μM final drug concentration, 384-well format, cutoff for positive-scoring molecules 3-fold increase, read-out: AK-based Prestwick Library Screening Results, E. faecium (increase in extracellular AK activity)
  fold induction at 50 µM: 1
E. coli; 50 μM final drug concentration, 384-well format, cutoff for positive-scoring molecules 3-fold increase, read-out: AK-based Prestwick Library Screening Results, E. coli (increase in extracellular AK activity)
  fold induction at 50 µM: 0.9
E. cloacae; 50 μM final drug concentration, 384-well format, cutoff for positive-scoring molecules 3-fold increase, read-out: AK-based Prestwick Library Screening Results, E. cloacae (increase in extracellular AK activity)
  fold induction at 50 µM: 0.9
[2]; 50 μM final drug concentration, 384-well format, cutoff for positive-scoring molecules 3-fold increase, read-out: AK-based Prestwick Library Screening Results, S. aureus (increase in extracellular AK activity)
  fold induction at 50 µM: 0.8
K. pneumoniae; 50 μM final drug concentration, 384-well format, cutoff for positive-scoring molecules 3-fold increase, read-out: AK-based Prestwick Library Screening Results, K. pneumoniae (increase in extracellular AK activity)
  fold induction at 50 µM: 0.7
P. aeruginosa; 50 μM final drug concentration, 384-well format, cutoff for positive-scoring molecules 3-fold increase, read-out: AK-based Prestwick Library Screening Results, P. aeruginosa (increase in extracellular AK activity)
  fold induction at 50 µM: 0.9

## O=C(O)/C=C/c1ccc(Cn2ccnc2)cc1 [Ozagrel hydrochloride]
[1]; planktonic A. baumannii, 50 μM final drug concentration, positive cutoff 3-fold increase, read-out: AK-based Prestwick library screening result, A. baumannii (fold increase in extracellular AK activity)
  fold induction at 50 µM: 0.7
E. faecium; planktonic E. faecium, 50 μM final drug concentration, positive cutoff 3-fold increase, read-out: AK-based Prestwick library screening result, E. faecium (fold increase in extracellular AK activity)
  fold induction at 50 µM: 0.9
E. coli; planktonic E. coli, 50 μM final drug concentration, positive cutoff 3-fold increase, read-out: AK-based Prestwick library screening result, E. coli (fold increase in extracellular AK activity)
  fold induction at 50 µM: 0.6
E. cloacae; planktonic E. cloacae, 50 μM final drug concentration, positive cutoff 3-fold increase, read-out: AK-based Prestwick library screening result, E. cloacae (fold increase in extracellular AK activity)
  fold induction at 50 µM: 0.9
[2]; planktonic S. aureus, 50 μM final drug concentration, positive cutoff 3-fold increase, read-out: AK-based Prestwick library screening result, S. aureus (fold increase in extracellular AK activity)
  fold induction at 50 µM: 0.5
K. pneumoniae; planktonic K. pneumoniae, 50 μM final drug concentration, positive cutoff 3-fold increase, read-out: AK-based Prestwick library screening result, K. pneumoniae (fold increase in extracellular AK activity)
  fold induction at 50 µM: 0.5
P. aeruginosa; planktonic P. aeruginosa, 50 μM final drug concentration, positive cutoff 3-fold increase, read-out: AK-based Prestwick library screening result, P. aeruginosa (fold increase in extracellular AK activity)
  fold induction at 50 µM: 0.6
